One molecule from patent US9334280B2, “Synthetic rigidin analogues as anticancer agents, salts, solvates and prodrugs thereof, and method of producing same” (New Mexico Technical Research Foundation, priority 2012, dated 2016) can be followed below.

The test system of experiment [1] is MES-SA/Dx5 uterine sarcoma cells (overexpress p-gp). Briefly: MTT antiproliferative assay, MDR MES-SA/Dx5. In kind it is cell-based, human. The method, then: Human T-cell leukemia cell line Jurkat (ATCC TIB-152, E6-1 clone) was cultured in RPMI-1640 (Invitrogen) supplemented with 10% FBS (Invitrogen), 100 mg/L penicillin G, 100 mg/L streptomycin, 1.0 mM sodium pyruvate, 1.5 g/L sodium bicarbonate, and 4.5 g/L glucose (all from Sigma). Human cervical cancer cell line HeLa (ATCC S3) was cultured in DMEM (Invitrogen) supplemented with 10% FBS, 100 mg/L penicillin G, and 100 mg/L streptomycin. MCF-7 (human mammary carcinoma) cells were cultured in DMEM supplemented with 1.0 mM sodium pyruvate, 1% GlutaMax™-1 (Invitrogen), 100 μg/mL penicillin, 100 μg/mL streptomycin, and 10% FBS. Human uterine sarcoma MES-SA and MES-SA/Dx5 cells were cultured in RPMI-1640 medium supplemented with 10% FBS, 100 mg/L penicillin G and 100 mg/L streptomycin. All cells were incubated at 37° C. in a humidified atmosphere with 5% CO2. The other cell lines were maintained in a similar fashion as previously described.
(§1) To evaluate antiproliferative properties of the compounds of Formula I, mitochondrial dehydrogenase activities were measured using the MTT assay. The cell lines were prepared by trypsinizing and seeding […] cells per well into microplates. All compounds were reconstituted in dimethyl sulfoxide (DMSO) at a concentration of either 100 mM or 25 mM prior to treatment. The cells were grown for 24 hrs before treatment at concentrations ranging from 0.004 to 100 microM and incubated for 48 hrs in 200 microL media. 20 microL of MTT reagent in serum free medium (5 mg/mL) was added to each well and incubated further for 2 hrs. Media was removed and the resulting formazan crystals were re-solubilized in 100 microL of DMSO and the optical density (OD) was measured using a Thermomax Molecular Device plate reader at a wavelength of 490 nm. The experiments were performed in quadruplicate and repeated at least twice for each compound per cell line. Cells treated with 0.1% DMSO were used as a negative control, while phenyl arsine oxide (PAO) was used as a positive killing control.
The cells of such tumors are referred to as multidrug resistant (MDR). Thus, we assessed the compounds of Formula I for antiproliferative activity in an MDR cancer cell line. This was done using the uterine sarcoma cells, MES-SA/Dx5, which overexpress p-gp. The parental drug-responsive MES-SA cell line was used as control.
Background: Tetrazolium dyes change colour on reduction, which living cells bring about.

Experiment [2] deals with UM-SCC10B head and neck metastases cells. Briefly: MTT antiproliferative assay, UM-SCC10B. In kind it is cell-based. As to conditions: Table 1A, 48 h, read-out: Concentration required to reduce the viability of cells by 50%, UM-SCC10B. The method, then:
as §1

The subject of experiment [3] is Hs683 anaplastic oligodendroglioma cells. Briefly: MTT antiproliferative assay, Hs683. Particulars: Homo sapiens, Hs 683, Table 2, 48 h, read-out: GI50 in vitro values, Hs683. In kind it is cell-based. The method, then: as §1
In experiment [4] the test system is HeLa cells. Briefly: Flow cytometric cell cycle analysis (Vybrant Orange). In kind it is cell-based, human. Particulars: 24 h. The method, then: To assess the effects of the analogues on the cell cycle, cell cycle analysis was performed. 70-80% confluent HeLa cells were trypsinized and seeded at an initial density of 2×10^5 cell per well into 6 well plates in DMEM supplemented with 10% FBS, 100 mg/L penicillin G and 100 mg/L streptomycin. The cells were allowed to adhere overnight and before treatment with compounds of Formula I at concentrations ranging from 0.1 to 10 microM. After 24 hrs, the cells were washed 3× with DMEM, trypsinized, pelleted, and re-suspended in 200 microL of culture medium containing 10 microM (2 microL/mL) vybrant orange dye. The samples in the labeling solution were transferred into Falcon tubes and incubated in a water bath for 30 mins at 37° C. The samples were then analyzed using a Becton Dickinson FACscan flow cytometer with CellQuest software. A 488 nm laser was utilized using parameters that can be found in Appendix B; 10,000 events were collected for analysis. Cells treated with 0.1% DMSO were used as a negative control and cells treated with colchicine were used as a positive control.
In further anticancer evaluation of compounds of Formula I cell cycle analysis was performed using the cell permeable DNA binding dye Vybrant Orange. In a normal population, cells are distributed among the three major phases of the cell cycle, G0/G1 in which there is one set of paired chromosomes per cell (2n), followed by the S or synthesis phase in which DNA is synthesized in preparation for division (there is a variable amount of DNA present during this phase) and finally G2/M phase in which the chromosomes of each cell have now been duplicated (4n). This DNA content can be measured using fluorescent DNA selective probes such as Vybrant Orange that produce signals that are proportional to DNA mass per cell. This dye interacts with double stranded DNA (dsDNA) in living cells and becomes fluorescent upon binding and thus can be used to track DNA content as cells progress through the various phases of the cell cycle using flow cytometry. Cell cycle analysis was performed on HeLa cells using Rig8 at various concentrations above and below the respective GI50. Since colchicine is a known antimitotic drug, it was utilized as a positive control, while HeLa cells treated with 0.1% DMSO were used as a negative control. FIG. 6 illustrates the results of this analysis using Rig 8 on HeLa cells.
On the technique in general: Flow cytometry measures light scatter and fluorescence of single cells or particles in a stream.

Experiment [5] concerns UM-SCC22B head and neck metastases cells. Briefly: MTT antiproliferative assay, UM-SCC22B. As to conditions: Homo sapiens, UMSCC22B, Table 1A, 48 h, read-out: Concentration required to reduce the viability of cells by 50%, UM-SCC22B. In kind it is cell-based. The method, then: as §1
Experiment [6] relates to B16F10 melanoma cells. Briefly: MTT antiproliferative assay, B16F10. Particulars: Mus musculus, B16-F10, Table 2, 48 h, read-out: GI50 in vitro values, B16F10. In kind it is cell-based. How it is done:
as §1

As for `O=C(c1ccccc1)c1[nH]c2[nH]cnc(=O)c2c1-c1cc(Br)cc(Br)c1` [Rig8, 6-Benzoyl-5-(3,5-dibromophenyl)-1H-pyrrolo[2,3-d]pyrimidin-4(7H)-one], the GI50 in experiment [1] (Homo sapiens, MES-SA/Dx5, Table 3, MDR cell line, read-out: GI50 in vitro Values, MES-SA/Dx5) is 394 ± 10 nM; in experiment [3], 20 nM; in experiment [6] it was 50 nM. Moreover, the “variation in the sensitivities of the parental and MDR cell lines” value in experiment [1] (MES-SA/Dx5 vs MES-SA, in words) is “only a small variation”. Besides, the IC50 came to 100 nM in experiment [2] and 20 nM in experiment [5]. In addition, the “% Relative DNA Content, G0/G1” value in experiment [4] (0.1 μM) worked out at 51.5 ± 4.3%; in experiment [4] (1 μM), 12.7 ± 2.2%; in experiment [4] (10 μM), 5.6 ± 2.2%. Also, the results for the “% Relative DNA Content, G2/M” value in experiment [4] (0.1 μM), in experiment [4] (1 μM) and in experiment [4] (10 μM) were 36.6 ± 4.6%, 73.4 ± 5.3% and 85.9 ± 2.1%, respectively. Also, the “% Relative DNA Content, S” value was 14.1 ± 3.9% in experiment [4] (0.1 μM), 9.7 ± 2.4% in experiment [4] (1 μM) and 5.3 ± 2.4% in experiment [4] (10 μM). Moreover, in experiment [4] (0.1-10 μM), the “cell cycle arrest (in words)” value is listed as “dose-dependent cell cycle arrest in the G2/M phase”.
